Test results reported in ChEMBL document CHEMBL1201862, “PubChem BioAssay data set” (2004).
Calls of active or inactive are those of the source.

Legend:
Mu-type opioid receptor = Mu-type opioid receptor (Homo sapiens, UniProt P35372); assay: HTS Image-Based Screen for Agonists of the MOR Receptor. [Related pubchem assays (depositor defined):AID1777, AID1785, AID1786, AID2133]; type: functional;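 also: imaging of beta-arrestin GFP recruitment into spots after receptor activation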
[1] = target: T1, Delta-type opioid receptor (Homo sapiens, UniProt P41143); assay: HTS Image-Based Screen for Agonists of the DOR Receptor. [Related pubchem assays (depositor defined):AID1777, AID1786, AID2133]; type: functional
[2] = target: T1, Delta-type opioid receptor; assay: HTS Image-Based Screen for Antagonists of the DOR Receptor. [Related pubchem assays (depositor defined):AID1777, AID1785, AID1786, AID2133]; type: functional
[3] = target: T2, Kappa-type opioid receptor (Homo sapiens, UniProt P41145); type: functional
[4] = target: T3, Latent membrane protein 1 (Human herpesvirus 4 (strain B95-8), UniProt P03230); assay: TES1-eGFP NF-kB reporter inhibition versus Tet-On dsRED, dose response, selectivity assay for LMP1 NF-kB inhibitor project, imaging, HEK293T, dual-color eGFP/dsRED, cherry-picks (AID 588398); type: functional, cell-based
T3 sequence (P03230 whole entry): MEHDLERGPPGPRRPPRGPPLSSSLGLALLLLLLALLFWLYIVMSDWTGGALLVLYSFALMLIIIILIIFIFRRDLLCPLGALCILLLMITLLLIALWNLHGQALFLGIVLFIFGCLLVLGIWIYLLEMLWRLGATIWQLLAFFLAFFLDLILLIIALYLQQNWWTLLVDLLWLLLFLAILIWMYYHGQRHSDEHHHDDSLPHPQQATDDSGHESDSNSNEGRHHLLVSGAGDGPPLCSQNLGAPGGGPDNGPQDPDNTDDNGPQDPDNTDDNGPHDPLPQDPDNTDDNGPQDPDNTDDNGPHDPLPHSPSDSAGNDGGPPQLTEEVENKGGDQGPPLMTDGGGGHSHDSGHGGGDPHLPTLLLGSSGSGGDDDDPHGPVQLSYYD

Beta-galactosidase = Beta-galactosidase (Escherichia coli, UniProt Q8VNN2); type: functional
[5] = target: T2, Kappa-type opioid receptor; type: functional; remark: listed apart in the source
[6] = Luminescence Cell-Based Dose Response HTS to Identify Inhibitors of 5'UTR Stem-Loop Driven Prion Protein mRNA Translation in H4 Neuroglioblastoma Cells. [Related pubchem assays: 1827 (Project Summary), 1813 (Primary HTS)]; type: functional
A-375 [7] = assay: MITF: Counter assay: A375 proliferation Measured in Cell-Based System Using Plate Reader - 2084-03_Inhibitor_Dose_DryPowder_Activity. [Related pubchem assays (depositor defined):AID488944]; type: functional; conditions: Homo sapiens
[8] = inhibitors of SNCA 5'UTR-driven reporter translation, confirmation, H4 neuroglioma cells, luminescence (AID 1988); type: functional, cell-based
A-375 [9] = assay: A375 melanoma cell viability reduction, dose response, counter-screen for MITF modulator project, cherry-pick samples, set 2 (AID 540335); type: functional, cell-based; conditions: Homo sapiens
[10] = target: T4, Microphthalmia-associated transcription factor (Homo sapiens, UniProt O75030); assay: TRPM1 promoter luciferase signal decrease, dose response, MITF inhibitor project, cell-based, SK-MEL-5, cherry-picked, set 3 (AID 493073); type: functional
T4 sequence (O75030 whole entry): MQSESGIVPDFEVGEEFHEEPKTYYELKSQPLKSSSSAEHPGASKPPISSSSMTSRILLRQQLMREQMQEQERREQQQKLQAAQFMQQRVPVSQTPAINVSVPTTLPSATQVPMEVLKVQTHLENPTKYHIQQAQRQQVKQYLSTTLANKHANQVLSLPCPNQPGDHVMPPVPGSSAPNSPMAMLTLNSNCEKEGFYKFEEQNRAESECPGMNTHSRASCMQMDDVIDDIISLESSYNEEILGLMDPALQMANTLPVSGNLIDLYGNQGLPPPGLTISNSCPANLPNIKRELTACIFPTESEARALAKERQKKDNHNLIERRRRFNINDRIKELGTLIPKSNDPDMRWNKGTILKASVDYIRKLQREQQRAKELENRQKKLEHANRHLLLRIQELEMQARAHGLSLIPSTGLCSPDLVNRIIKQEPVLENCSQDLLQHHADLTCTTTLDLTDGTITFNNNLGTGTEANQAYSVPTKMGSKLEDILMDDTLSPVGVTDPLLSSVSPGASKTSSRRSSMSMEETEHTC

[11] = inhibitors of firefly luciferase expression or activity, dose response, H4 neuroglioma cells, luminescence (AID 1990); type: functional, cell-based
[12] = target: T5, Dual specificity protein phosphatase 3 (Homo sapiens, UniProt P51452); assay: SAR VHR1 Fluorescent Assay for In Vitro dose response studies Set 3. [Related pubchem assays (depositor defined):AID1654, AID1661, AID1878]; type: functional
[13] = target: T5, Dual specificity protein phosphatase 3; assay: SAR VHR1 Fluorescent Assay for In Vitro dose response studies Set 2. [Related pubchem assays (depositor defined):AID1654, AID1661, AID1878]; type: functional
[14] = target: T6, Tyrosine-protein phosphatase non-receptor type 22 (Homo sapiens, UniProt Q9Y2R2); assay: LYP (PTPN22) phosphatase inhibitor potency, SAR follow-up, biochemical, pCAP fluorogenic substrate, fluorescence, set 3 (AID 449727); type: functional
[15] = target: Tyrosine-protein phosphatase non-receptor type 12 (Homo sapiens, UniProt Q05209); assay: SAR Selectivity Analysis of small molecule inhibitors of PEST using pCAP in a fluorescence assay. [Related pubchem assays (depositor defined):AID1779, AID1784, AID2135]; type: functional
[16] = target: T7, Tyrosine-protein phosphatase non-receptor type 7 (Homo sapiens, UniProt P35236); assay: redox-dependent HePTP inhibition, mechanism study, biochemical, fluorescence (AID 2068); type: functional
[17] = target: T6, Tyrosine-protein phosphatase non-receptor type 22; assay: SAR LYP1 Fluorescent Assay using OMFP substrate for In Vitro dose response studies - Set 3. [Related pubchem assays (depositor defined):AID1779, AID1784, AID2140, AID2686]; type: functional
[18] = target: T7, Tyrosine-protein phosphatase non-receptor type 7; assay: HePTP (PTPN7) phosphatase inhibitor potency, SAR follow-up, biochemical, set 2 (AID 449736); type: functional
[19] = target: Dual specificity protein phosphatase 6 (Rattus norvegicus, UniProt Q64346); type: functional;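 also: confirmatory in vitro dose-response testing of MKP-3 inhibition; recombinant His-tagged MKP-3 made in E. coli BL21 with OMFP substrate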
Sequence of Dual specificity protein phosphatase 6 (Q64346 whole entry): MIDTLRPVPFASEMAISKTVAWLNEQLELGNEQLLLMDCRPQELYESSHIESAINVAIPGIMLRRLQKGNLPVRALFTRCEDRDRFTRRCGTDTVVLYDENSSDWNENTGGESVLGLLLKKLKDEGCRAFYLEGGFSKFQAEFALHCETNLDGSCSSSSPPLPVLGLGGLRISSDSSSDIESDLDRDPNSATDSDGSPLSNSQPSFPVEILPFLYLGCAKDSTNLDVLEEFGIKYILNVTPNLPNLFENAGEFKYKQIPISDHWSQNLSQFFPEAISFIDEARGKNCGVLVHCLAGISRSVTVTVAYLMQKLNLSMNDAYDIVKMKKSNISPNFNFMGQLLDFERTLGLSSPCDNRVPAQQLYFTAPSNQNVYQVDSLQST

T1 sequence (P41143 whole entry): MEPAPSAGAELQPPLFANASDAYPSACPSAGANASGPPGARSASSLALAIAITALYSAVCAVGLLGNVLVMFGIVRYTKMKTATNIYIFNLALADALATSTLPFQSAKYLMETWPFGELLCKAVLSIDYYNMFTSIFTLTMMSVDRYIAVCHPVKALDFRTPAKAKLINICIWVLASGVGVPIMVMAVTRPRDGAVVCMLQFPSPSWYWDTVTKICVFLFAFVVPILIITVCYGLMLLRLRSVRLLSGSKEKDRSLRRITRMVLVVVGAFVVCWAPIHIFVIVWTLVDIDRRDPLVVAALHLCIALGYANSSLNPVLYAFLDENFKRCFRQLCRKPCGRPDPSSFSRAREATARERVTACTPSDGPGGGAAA
T6 sequence (Q9Y2R2 whole entry): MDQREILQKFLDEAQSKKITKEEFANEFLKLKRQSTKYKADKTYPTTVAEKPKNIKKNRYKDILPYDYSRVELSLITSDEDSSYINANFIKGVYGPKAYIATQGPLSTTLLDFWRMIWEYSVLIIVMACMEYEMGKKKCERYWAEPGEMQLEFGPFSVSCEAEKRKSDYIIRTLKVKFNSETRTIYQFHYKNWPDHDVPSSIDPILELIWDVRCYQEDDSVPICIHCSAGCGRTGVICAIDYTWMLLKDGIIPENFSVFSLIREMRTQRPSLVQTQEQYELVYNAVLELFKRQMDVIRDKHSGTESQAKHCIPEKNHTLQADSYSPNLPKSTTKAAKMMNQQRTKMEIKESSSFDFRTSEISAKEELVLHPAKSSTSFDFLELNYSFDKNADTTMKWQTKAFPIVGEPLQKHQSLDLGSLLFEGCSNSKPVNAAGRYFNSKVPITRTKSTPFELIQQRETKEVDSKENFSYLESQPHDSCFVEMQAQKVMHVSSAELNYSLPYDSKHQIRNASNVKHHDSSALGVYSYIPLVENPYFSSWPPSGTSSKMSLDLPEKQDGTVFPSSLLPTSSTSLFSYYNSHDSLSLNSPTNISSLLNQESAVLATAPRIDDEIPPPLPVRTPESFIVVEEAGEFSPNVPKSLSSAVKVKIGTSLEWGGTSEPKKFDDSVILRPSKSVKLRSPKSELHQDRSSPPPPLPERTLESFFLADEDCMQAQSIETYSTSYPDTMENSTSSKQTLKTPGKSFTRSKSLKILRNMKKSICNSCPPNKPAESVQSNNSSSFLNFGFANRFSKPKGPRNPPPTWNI
T2 sequence (P41145 whole entry): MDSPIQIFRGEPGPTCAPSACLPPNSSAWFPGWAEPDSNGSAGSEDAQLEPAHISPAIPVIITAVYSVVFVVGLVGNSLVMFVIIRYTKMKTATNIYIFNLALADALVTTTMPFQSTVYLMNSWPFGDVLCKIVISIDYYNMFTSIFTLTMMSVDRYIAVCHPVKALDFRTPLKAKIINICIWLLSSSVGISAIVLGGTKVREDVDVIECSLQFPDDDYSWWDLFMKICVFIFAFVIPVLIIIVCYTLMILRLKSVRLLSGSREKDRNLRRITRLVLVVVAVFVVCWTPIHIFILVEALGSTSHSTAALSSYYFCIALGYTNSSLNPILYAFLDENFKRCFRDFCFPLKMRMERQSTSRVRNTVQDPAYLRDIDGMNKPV
T7 sequence (P35236 whole entry): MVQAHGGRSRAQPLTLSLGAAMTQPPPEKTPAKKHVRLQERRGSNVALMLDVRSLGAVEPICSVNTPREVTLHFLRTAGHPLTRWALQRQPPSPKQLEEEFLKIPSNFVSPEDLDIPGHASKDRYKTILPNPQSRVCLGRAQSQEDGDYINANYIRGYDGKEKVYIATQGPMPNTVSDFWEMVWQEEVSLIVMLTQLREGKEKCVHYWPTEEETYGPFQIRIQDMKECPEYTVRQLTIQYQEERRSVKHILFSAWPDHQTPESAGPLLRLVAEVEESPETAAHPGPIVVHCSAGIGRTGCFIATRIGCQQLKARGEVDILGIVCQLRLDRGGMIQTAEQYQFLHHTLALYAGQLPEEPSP
T5 sequence (P51452 whole entry): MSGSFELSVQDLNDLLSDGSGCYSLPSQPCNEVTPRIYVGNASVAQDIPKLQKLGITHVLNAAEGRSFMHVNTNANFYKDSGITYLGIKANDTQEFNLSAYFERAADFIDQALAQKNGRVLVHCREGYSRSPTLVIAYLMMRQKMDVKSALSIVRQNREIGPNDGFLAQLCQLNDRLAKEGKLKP
Sequence of Tyrosine-protein phosphatase non-receptor type 12 (Q05209 whole entry): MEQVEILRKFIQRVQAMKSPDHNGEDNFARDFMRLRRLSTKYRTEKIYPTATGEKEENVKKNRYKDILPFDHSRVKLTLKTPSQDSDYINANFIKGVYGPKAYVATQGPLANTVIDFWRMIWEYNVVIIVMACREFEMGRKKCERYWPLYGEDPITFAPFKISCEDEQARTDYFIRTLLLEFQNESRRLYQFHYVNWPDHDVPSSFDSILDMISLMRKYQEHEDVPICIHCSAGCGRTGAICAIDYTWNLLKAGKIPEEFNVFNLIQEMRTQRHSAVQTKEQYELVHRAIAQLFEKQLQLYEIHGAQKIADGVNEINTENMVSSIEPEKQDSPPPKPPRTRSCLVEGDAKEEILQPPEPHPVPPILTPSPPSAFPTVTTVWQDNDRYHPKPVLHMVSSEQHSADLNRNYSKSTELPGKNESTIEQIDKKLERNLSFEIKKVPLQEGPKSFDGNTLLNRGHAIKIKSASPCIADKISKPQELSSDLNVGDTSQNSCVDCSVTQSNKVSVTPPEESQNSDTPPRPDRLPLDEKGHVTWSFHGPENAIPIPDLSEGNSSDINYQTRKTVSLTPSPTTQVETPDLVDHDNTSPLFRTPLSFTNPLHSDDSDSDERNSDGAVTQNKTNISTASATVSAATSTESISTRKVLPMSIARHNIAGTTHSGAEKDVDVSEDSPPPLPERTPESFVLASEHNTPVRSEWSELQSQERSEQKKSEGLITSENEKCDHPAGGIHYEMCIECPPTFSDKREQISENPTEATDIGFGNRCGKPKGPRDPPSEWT
Sequence of Mu-type opioid receptor (P35372 whole entry): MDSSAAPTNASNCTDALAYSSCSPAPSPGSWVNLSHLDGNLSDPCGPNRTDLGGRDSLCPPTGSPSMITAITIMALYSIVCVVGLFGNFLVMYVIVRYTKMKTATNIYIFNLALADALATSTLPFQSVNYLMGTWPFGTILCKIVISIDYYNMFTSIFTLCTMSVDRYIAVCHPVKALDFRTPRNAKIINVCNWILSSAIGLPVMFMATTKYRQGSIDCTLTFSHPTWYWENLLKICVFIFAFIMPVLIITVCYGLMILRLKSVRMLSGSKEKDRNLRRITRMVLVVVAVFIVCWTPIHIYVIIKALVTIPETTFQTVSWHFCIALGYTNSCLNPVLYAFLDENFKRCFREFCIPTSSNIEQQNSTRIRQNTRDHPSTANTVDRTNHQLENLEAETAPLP
Sequence of Beta-galactosidase (Q8VNN2 whole entry): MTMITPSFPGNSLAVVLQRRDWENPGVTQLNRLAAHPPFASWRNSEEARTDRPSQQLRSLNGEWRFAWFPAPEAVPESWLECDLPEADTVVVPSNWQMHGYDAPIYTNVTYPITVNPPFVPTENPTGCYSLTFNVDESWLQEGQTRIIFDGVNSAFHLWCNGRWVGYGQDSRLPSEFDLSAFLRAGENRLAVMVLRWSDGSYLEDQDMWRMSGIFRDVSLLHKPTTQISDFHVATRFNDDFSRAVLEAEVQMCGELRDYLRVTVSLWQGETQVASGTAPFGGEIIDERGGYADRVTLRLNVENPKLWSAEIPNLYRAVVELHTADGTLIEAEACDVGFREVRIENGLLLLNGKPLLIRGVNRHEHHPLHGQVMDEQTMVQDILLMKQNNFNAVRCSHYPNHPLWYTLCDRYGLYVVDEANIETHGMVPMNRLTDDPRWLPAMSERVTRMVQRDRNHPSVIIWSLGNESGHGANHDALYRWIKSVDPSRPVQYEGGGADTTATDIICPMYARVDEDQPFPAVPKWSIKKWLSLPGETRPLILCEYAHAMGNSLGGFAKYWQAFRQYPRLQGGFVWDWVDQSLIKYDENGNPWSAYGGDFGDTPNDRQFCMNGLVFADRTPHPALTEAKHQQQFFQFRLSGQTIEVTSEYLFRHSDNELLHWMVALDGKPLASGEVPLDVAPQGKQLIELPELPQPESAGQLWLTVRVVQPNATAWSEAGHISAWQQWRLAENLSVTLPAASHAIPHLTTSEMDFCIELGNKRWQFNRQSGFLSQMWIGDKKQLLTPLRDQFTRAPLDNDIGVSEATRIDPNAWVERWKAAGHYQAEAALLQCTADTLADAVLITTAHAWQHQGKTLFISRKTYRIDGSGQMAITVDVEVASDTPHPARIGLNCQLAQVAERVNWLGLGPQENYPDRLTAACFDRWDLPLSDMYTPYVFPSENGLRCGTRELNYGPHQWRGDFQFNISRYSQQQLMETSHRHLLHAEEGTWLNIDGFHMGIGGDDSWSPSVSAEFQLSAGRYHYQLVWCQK

## O=c1[nH]c(Nc2nc3ccccc3o2)nc2c1CCCC2
Mu-type opioid receptor
  EC50: > 32 µM (inactive)
[1]
  EC50: > 32 µM (inactive)
[2]
  IC50: > 32 µM (inactive)
[3]
  IC50: 5.27 µM (active)
[4]
  AC50: 16.8 µM (active)
Beta-galactosidase
  EC50: > 31.5 µM (inactive)
[5]
  IC50: > 32 µM

## O=C(O)c1ccccc1C(=O)Nc1ccc(Oc2cccc3ccccc23)cc1
[6]
  EC50: 12.7 µM (active)
A-375 [7]
  AC50: > 35 µM (active)
[8]
  EC50: 10.4 µM (active)
A-375 [9]
  AC50: > 35 µM (active)
[10]
  AC50: 18.8 µM (active)
[11]
  EC50: 6.38 µM (active)

## Cc1cc(NC(=O)c2ccccc2Cl)ccc1NC(=O)CSc1nnc(-c2cccs2)n1C
[12]
  IC50: 25.3 µM (active)

## CCOC(=O)COc1c(Cl)cc(/C=C2/S/C(=N/c3ccc(F)cc3)NC2=O)cc1OCC
[13]
  IC50: > 100 µM (inactive)
[14]
  IC50: 54.2 µM (active)
[15]
  IC50: 9.35 µM (active)
[16]
  IC50: 10.5 µM (active)
[17]
  IC50: 74.8 µM (active)
[18]
  IC50: 1.4 µM (active)
[19]
  IC50: 66.4 µM (active)
